Data from PubChem BioAssay (NCI).
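All cell lines were grown in 96-well plates and treated with compound for 48 hours. GI50 = concentration required for 50% inhibition of growth. Definition used: TGI = concentration required for complete inhibition of growth.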

What was measured:
Assay in all cases: NCI anticancer screen, dose series, 48 h
[1] = tested on: K-562 leukemia
[2] = tested on: M14 melanoma
[3] = tested on: SF-539 CNS
[4] = tested on: SW-620 colon
[5] = tested on: NCI-H226 lung
[6] = tested on: RXF 393 renal
[7] = tested on: SK-MEL-5 melanoma
[8] = tested on: MDA-MB-231 breast
[9] = tested on: RPMI-8226 leukemia
[10] = tested on: UACC-257 melanoma
[11] = tested on: HL-60(TB) leukemia
[12] = tested on: BT-549 breast
[13] = tested on: NCI/ADR-RES ovarian
[14] = tested on: SNB-19 CNS
[15] = tested on: SF-268 CNS
[16] = tested on: IGROV1 ovarian
[17] = tested on: SK-OV-3 ovarian
[18] = tested on: HT29 colon
[19] = tested on: CAKI-1 renal
[20] = tested on: SN12C renal
[21] = tested on: U251 CNS
[22] = tested on: LOX IMVI melanoma
[23] = tested on: SF-295 CNS
[24] = tested on: HCT-116 colon
[25] = tested on: 786-0 renal
[26] = tested on: UACC-62 melanoma
[27] = tested on: OVCAR-5 ovarian
[28] = tested on: SK-MEL-2 melanoma
[29] = tested on: UO-31 renal
[30] = tested on: SK-MEL-28 melanoma
[31] = tested on: HOP-92 NSCLC
[32] = tested on: TK-10 renal
[33] = tested on: OVCAR-4 ovarian
[34] = tested on: COLO 205 colon
[35] = tested on: A498 renal
[36] = tested on: HS 578T breast
[37] = tested on: SR leukemia
[38] = tested on: KM12 colon
[39] = tested on: NCI-H460 lung
[40] = tested on: EKVX NSCLC
[41] = tested on: DU-145 prostate
[42] = tested on: A549 NSCLC
[43] = tested on: MCF7 breast
[44] = tested on: PC-3 prostate
[45] = tested on: HCT-15 colon
[46] = tested on: ACHN renal
[47] = tested on: NCI-H522 lung
[48] = tested on: OVCAR-8 ovarian
[49] = tested on: SNB-75 CNS
[50] = tested on: HCC-2998 colon
[51] = tested on: HOP-62 NSCLC
[52] = tested on: MALME-3M melanoma
[53] = tested on: MDA-MB-435
[54] = tested on: T-47D breast
[55] = tested on: NCI-H23 lung
[56] = tested on: MOLT-4 leukemia
[57] = tested on: CCRF-CEM leukemia

Structure (SMILES): COc1cccc(N2CCN(C3=C(Cl)C(=O)c4ncccc4C3=O)CC2)c1
- GI50 [1]: 2.3 µM
- TGI [1]: 6.28 µM
- GI50 [2]: 3.27 µM
- TGI [2]: 13 µM
- GI50 [3]: 11.4 µM
- TGI [3]: 23.6 µM
- GI50 [4]: 1.64 µM
- TGI [4]: 3.32 µM
- GI50 [5]: 14 µM
- TGI [5]: 31.9 µM
- GI50 [6]: 1.77 µM
- TGI [6]: 3.25 µM
- GI50 [7]: 11.5 µM
- TGI [7]: 23.8 µM
- GI50 [8]: 1.68 µM
- TGI [8]: 3.2 µM
- GI50 [9]: 2.27 µM
- TGI [9]: 5.92 µM
- GI50 [10]: 2.12 µM
- TGI [10]: 5.23 µM
- GI50 [11]: 1.75 µM
- TGI [11]: 4.47 µM
- GI50 [12]: 6.75 µM
- TGI [12]: 18.3 µM
- GI50 [13]: 3.36 µM
- TGI [13]: 15.5 µM
- GI50 [14]: 16.2 µM
- TGI [14]: 32.9 µM
- GI50 [15]: 13.1 µM
- TGI [15]: 29.6 µM
- GI50 [16]: 2.93 µM
- TGI [16]: 9.52 µM
- GI50 [17]: 15.4 µM
- TGI [17]: 46.2 µM
- GI50 [18]: 12.2 µM
- TGI [18]: 28.6 µM
- GI50 [19]: 2.64 µM
- TGI [19]: 8.15 µM
- GI50 [20]: 5.19 µM
- TGI [20]: 20.2 µM
- GI50 [21]: 5.46 µM
- TGI [21]: 19.5 µM
- GI50 [22]: 1.62 µM
- TGI [22]: 3.12 µM
- GI50 [23]: 12.5 µM
- TGI [23]: 26.2 µM
- GI50 [24]: 1.73 µM
- TGI [24]: 3.18 µM
- GI50 [25]: 5.02 µM
- TGI [25]: 16.3 µM
- GI50 [26]: 3.48 µM
- TGI [26]: 12.3 µM
- GI50 [27]: 15.4 µM
- TGI [27]: 30.3 µM
- GI50 [28]: 6.25 µM
- TGI [28]: 19.3 µM
- GI50 [29]: 1.64 µM
- TGI [29]: 3.4 µM
- GI50 [30]: 3.3 µM
- TGI [30]: 9.58 µM
- GI50 [31]: 1.63 µM
- TGI [31]: 3.07 µM
- GI50 [32]: 4.18 µM
- TGI [32]: 13.2 µM
- GI50 [33]: 1.73 µM
- TGI [33]: 3.26 µM
- GI50 [34]: 1.87 µM
- TGI [34]: 4.01 µM
- GI50 [35]: 13.5 µM
- TGI [35]: 26.4 µM
- GI50 [36]: 10 µM
- TGI [36]: 51.5 µM
- GI50 [37]: 1.8 µM
- TGI [37]: 5.38 µM
- GI50 [38]: 20.3 µM
- TGI [38]: 41.7 µM
- GI50 [39]: 7.26 µM
- TGI [39]: 26.7 µM
- GI50 [40]: 2.05 µM
- TGI [40]: 4.42 µM
- GI50 [41]: 11.1 µM
- TGI [41]: 23.1 µM
- GI50 [42]: 15.5 µM
- TGI [42]: 33 µM
- GI50 [43]: 1.98 µM
- TGI [43]: 5.86 µM
- GI50 [44]: 8.55 µM
- TGI [44]: 22.3 µM
- GI50 [45]: 2.05 µM
- TGI [45]: 5.6 µM
- GI50 [46]: 1.76 µM
- TGI [46]: 3.19 µM
- GI50 [47]: 1.73 µM
- TGI [47]: 3.39 µM
- GI50 [48]: 2 µM
- TGI [48]: 5.01 µM
- GI50 [49]: 11.8 µM
- TGI [49]: 24.7 µM
- GI50 [50]: 12.1 µM
- TGI [50]: 25.5 µM
- GI50 [51]: 18.5 µM
- TGI [51]: 33.2 µM
- GI50 [52]: 1.84 µM
- TGI [52]: 4.06 µM
- GI50 [53]: 1.79 µM
- TGI [53]: 3.34 µM

Structure (SMILES): CCN(CC)CCN1C(=O)c2c(c3c4cc(Br)ccc4[nH]c3c3ccc4ccccc4c23)C1=O
- GI50 [1]: 0.273 µM
- TGI [1]: 0.905 µM
- GI50 [2]: 1.57 µM
- TGI [2]: 2.96 µM
- GI50 [3]: 1.56 µM
- TGI [3]: 3 µM
- GI50 [4]: 0.553 µM
- TGI [4]: 2.16 µM
- GI50 [5]: 5.64 µM
- TGI [5]: 33.7 µM
- GI50 [6]: 1.58 µM
- TGI [6]: 3 µM
- GI50 [7]: 1.75 µM
- TGI [7]: 3.18 µM
- GI50 [8]: 1.41 µM
- TGI [8]: 3 µM
- GI50 [9]: 1.21 µM
- TGI [9]: 3.23 µM
- GI50 [10]: 1.64 µM
- TGI [10]: 3.01 µM
- GI50 [11]: 1.58 µM
- TGI [11]: 3.98 µM
- GI50 [12]: 2.22 µM
- TGI [12]: 4.07 µM
- GI50 [54]: 0.7 µM
- TGI [54]: 2.56 µM
- GI50 [13]: 1.43 µM
- TGI [13]: 4.19 µM
- GI50 [14]: 1.43 µM
- TGI [14]: 2.84 µM
- GI50 [15]: 1.52 µM
- TGI [15]: 3.53 µM
- GI50 [16]: 1.27 µM
- TGI [16]: 2.82 µM
- GI50 [17]: 1.5 µM
- TGI [17]: 2.9 µM
- GI50 [18]: 1.35 µM
- TGI [18]: 2.8 µM
- GI50 [19]: 1.25 µM
- TGI [19]: 2.63 µM
- GI50 [20]: 1.58 µM
- TGI [20]: 3.14 µM
- GI50 [21]: 1.02 µM
- TGI [21]: 2.21 µM
- GI50 [22]: 1.25 µM
- TGI [22]: 3.04 µM
- GI50 [23]: 1.61 µM
- TGI [23]: 3.09 µM
- GI50 [24]: 1.25 µM
- TGI [24]: 2.5 µM
- GI50 [25]: 1.71 µM
- TGI [25]: 3.11 µM
- GI50 [55]: 1.5 µM
- TGI [55]: 3.32 µM
- GI50 [26]: 1.64 µM
- TGI [26]: 3.5 µM
- GI50 [27]: 1.76 µM
- TGI [27]: 3.23 µM
- GI50 [29]: 1.32 µM
- TGI [29]: 2.62 µM
- GI50 [30]: 1.73 µM
- TGI [30]: 3.19 µM
- GI50 [31]: 1.32 µM
- TGI [31]: 2.71 µM
- GI50 [32]: 2.11 µM
- TGI [32]: 3.56 µM
- GI50 [33]: 1.68 µM
- TGI [33]: 3.22 µM
- GI50 [34]: 1.43 µM
- TGI [34]: 3.13 µM
- GI50 [35]: 1.64 µM
- TGI [35]: 3.29 µM
- GI50 [36]: 1.94 µM
- TGI [36]: 5.02 µM
- GI50 [37]: 0.102 µM
- TGI [37]: 0.52 µM
- GI50 [38]: 1.71 µM
- TGI [38]: 3.5 µM
- GI50 [39]: 0.476 µM
- TGI [39]: 1.85 µM
- GI50 [40]: 1.38 µM
- TGI [40]: 2.92 µM
- GI50 [41]: 1.22 µM
- TGI [41]: 2.56 µM
- GI50 [42]: 1.43 µM
- TGI [42]: 2.79 µM
- GI50 [43]: 0.0439 µM
- TGI [43]: 1.64 µM
- GI50 [44]: 1.31 µM
- TGI [44]: 2.65 µM
- GI50 [45]: 1.4 µM
- TGI [45]: 3.08 µM
- GI50 [46]: 1.14 µM
- TGI [46]: 2.36 µM
- GI50 [47]: 1.29 µM
- TGI [47]: 2.67 µM
- GI50 [48]: 1.27 µM
- TGI [48]: 2.66 µM
- GI50 [49]: 1.45 µM
- TGI [49]: 2.84 µM
- GI50 [56]: 0.215 µM
- TGI [56]: 1.92 µM
- GI50 [57]: 0.186 µM
- TGI [57]: 1.75 µM
- GI50 [50]: 1.66 µM
- TGI [50]: 3.43 µM
- GI50 [51]: 0.922 µM
- TGI [51]: 2.25 µM
- GI50 [52]: 1.56 µM
- TGI [52]: 3.06 µM
- GI50 [53]: 1.63 µM
- TGI [53]: 3.08 µM
